# Source: patent US20110281369A1 (Board of Governors for Higher Education, State of Rhode …, priority 2006, published 2011)
# Several values for one entry are separate records, joined by “and”; a condition that tells them apart may be missing. Equal entries are not always repeated.
# Assays:
# [1] = MPA concentration in saliva of kidney transplant recipients by LC-MS/MS; assay type: in vivo, human
# Experimental: Indomethacin (INDO, Alfa Aesar) was used as the internal standard. All reagents and solvents were high performance liquid chromatography (HPLC) grade. […] Calibrators and Quality Control standards (QCs) were prepared using pooled unstimulated whole saliva collected from at least six healthy volunteers (IRB Approval#HU0203-120). […] All calibrators and QCs were aliquoted into 2 mL cryovials and maintained at −20° C. until use.
# Extraction of MPA from saliva was carried out by protein precipitation. Calibrators, QC's or patient samples were thawed in a shaking water bath at 37° C. for 5 min. The samples were then sonicated for 10 seconds and 100 μL was pipetted into a microcentrifuge tube, followed by the subsequent additions 50 μL methanol containing INDO (500 μg/L) and […] acetonitrile. The tubes were vortex mixed for 90 seconds and centrifuged at 16,000 g for 5 min. The supernatants were carefully aspirated into glass culture tubes and dried at 50° C. in a centrifugal evaporator (Thermosavant Holbrook, N.Y.) after which they were reconstituted with 100 μL of 85:15% v/v of methanol and 0.05% formic acid in de-ionized water and a 20 μL aliquot was injected onto the column.
# Analytical column was Zorbax Rx C8 (150 mm×4.6 mm, 5 μm) from Agilent Technologies (Palo Alto, Calif.) and mobile phase was a gradient mixture of methanol and deionized water containing 0.05% formic acid. […] For this, a combined mixture of the analytes (1 mg/L each) in mobile phase was infused continuously onto the mass spectrometer and the residues extracted from blank saliva were injected simultaneously via a three way T-valve. In accordance with further embodiments, the ionization technique may involve any of photoionization, electrospray ionization, atmospheric pressure chemical ionization, electron capture ionization or selective ion monitoring, and may be performed in positive mode or negative mode.
# (§1) Patients were receiving 1000-2000 mg/day mycophenolate mofetil (Cellcept® Roche Laboratories). Unstimulated saliva samples were collected by passive drool into a plastic cup within a 5-min period of blood collection and stored at −80° C. until analysis. The patients remained fasted for the first 2 hours of sampling but then were allowed standard hospital meals.
# (§2) Given the fact that the possibility of blood leakage in saliva is high at morning trough (FIG. 3), have collected 144 additional saliva samples obtained during another pharmacokinetic study. Therefore the data represented in the next section were obtained from 29 kidney transplant recipients throughout a 12-hour dosing interval.
# [2] = Total and unbound MPA and metabolite concentrations in plasma of kidney transplant recipients (HPLC-UV; ultrafiltration followed by LC-MS/MS); assay type: in vivo, human; details: 29 kidney transplant recipients
# Experimental: as §1, §2
# [3] = Stock solution stability of methanolic stock solutions at room temperature; assay type: physicochemical; details: 8 hours, against freshly prepared samples
# [4] = Stability of MPA in saliva based quality control standards (freeze-thaw, short term, autosampler); assay type: physicochemical; details: for Short term stability: bench top 5 hours at room temperature; for Short term stability / Freeze-thaw stability / Autosampler stability: n=3, mean ± SD, in % (unit assumed); for Freeze-thaw stability: three cycles of freezing at −20° C. and thawing at room temperature; for Autosampler stability: dried and reconstituted extracts 14-hours in autosampler
# Experimental: The lower limit of quantification (LLOQ) and limit of detection (LOD) were defined at a signal to noise ratio of 5:1 and 3:1, respectively. The recovery of the extraction procedure was done by comparing the peak areas obtained from an extracted saliva based standard of MIPA or INDO with the peak areas of these analytes in methanol. To evaluate intraday coefficient of variation (CV %) of the assay, QCs were analyzed six times on the same day. Interday CV % and accuracy was evaluated by measuring the QC concentrations over 10 days using a separate calibration curve for each set. […] For short term stability studies, samples were kept on the bench top for 5 hours at room temperature and for freeze-thaw stability studies, samples were subjected to three cycles of freezing at −20° C. and thawing unassisted at room temperature. To evaluate autosampler stability, dried and reconstituted extracts were kept in the autosampler for 14-hours and then analyzed.
# [5] = cited from earlier work
# [6] = 29 kidney transplant recipients, N=243
# [7] = 29 kidney transplant recipients, N=246
smiles,measurement,setting,value
"COc1c(C)c2c(c(O)c1C/C=C(\C)CCC(=O)O[C@@H]1O[C@H](C(=O)O)[C@@H](O)[C@H](O)[C@H]1O)C(=O)OC2 [AcMPAG, Acyl-MPAG]",Presence of AcMPAG peak in patient saliva,"[1]; saliva of kidney transplant recipients, LC-MS/MS chromatogram",no AcMPAG peak was observed
same,"AcMPAG conc, Mean ± SD","[2]; plasma, N=244",1.8 ± 1.4 mg/L
same,"AcMPAG conc, Median","[2]; plasma, N=244",1.5 mg/L
same,"AcMPAG conc, Min-Max","[2]; plasma, N=244",0.4 to 8.5 mg/L
"COc1ccc2c(c1)c(CC(=O)O)c(C)n2C(=O)c1ccc(Cl)cc1 [INDO, Indomethacin]",Loss of analyte at room temperature from methanolic stock solution,[3],10%
"COc1c(C)c2c(c(O)c1C/C=C(\C)CCC(=O)O)C(=O)OC2 [MPA, Mycophenolic acid]",Salivary concentration of MPA before administration of Cellcept morning dose (morning trough),"[1]; 11 kidney transplant recipients, morning trough",79.8 ± 63.7 µg/L
same,"Saliva concentration of MPA, range","[1]; 11 kidney transplant recipients, n=100 samples, 12-hour dosing interval",2.6 to 2204 µg/L and 2.6 to 220.4 µg/L
same,"Saliva concentration of MPA, Mean±SD","[1]; 11 kidney transplant recipients, n=100 samples, 12-hour dosing interval, 1000-2000 mg/day mycophenolate mofetil",31.4 ± 32.3 µg/L
same,Average deviation between saliva and unbound plasma concentrations,"[1]; 29 kidney transplant recipients, 244 saliva samples",0.49 ng/mL
same,"Deviation between saliva and unbound conc, Mean ± SD (average deviation)",[1]; [6],0.49 µg/L and 0.49 ± 44.25 µg/L
same,"Deviation between saliva and unbound conc, Median",[1]; [6],1.89 µg/L
same,"Deviation between saliva and unbound conc, Min-Max",[1]; [6],-208.10 to 264.54 µg/L
same,"Saliva MPA conc, Mean ± SD",[1]; [7],28.3 ± 32.3 µg/L
same,"Saliva MPA conc, Median",[1]; [7],18.1 µg/L
same,"Saliva MPA conc, Min-Max",[1]; [7],1.4 to 283.9 µg/L
same,Saliva MPA compared with unbound plasma concentration,"[1]; two hours post dose, absorption phase",considerably lower
same,"Unbound MPA conc, Mean ± SD","[2]; plasma ultrafiltrate, N=243",27.9 ± 36.6 µg/L
same,"Unbound MPA conc, Median","[2]; plasma ultrafiltrate, N=243",14.5 µg/L
same,"Unbound MPA conc, Min-Max","[2]; plasma ultrafiltrate, N=243",1.8 to 267.0 µg/L
same,"Total MPA conc, Median","[2]; plasma, N=244",2.3 mg/L
same,"Total MPA conc, Min-Max","[2]; plasma, N=244",0.3 to 38.5 mg/L
same,"Total MPA conc, Mean ± SD","[2]; plasma, N=244, 12-hour dosing interval",3.7 ± 4.7 mg/L
same,Short term stability,[4]; 10 μg/L MPA in saliva,106.0 ± 3.6
same,Freeze-thaw stability,[4]; 10 μg/L MPA in saliva,103.6 ± 7.1
same,Autosampler stability,[4]; 10 μg/L MPA,95.0 ± 6.6
same,Short term stability,[4]; 600 μg/L MPA in saliva,98.7 ± 2.7
same,Freeze-thaw stability,[4]; 600 μg/L MPA in saliva,98.9 ± 1.1
same,Autosampler stability,[4]; 600 μg/L MPA,98.2 ± 0.6
same,Stability in saliva based standards (in words),[4]; under the experimental condition described,stable
same,Loss of analyte at room temperature from methanolic stock solution,[3],0.6%
same,pKa,[5],4.5
"COc1c(C)c2c(c(O[C@@H]3O[C@H](C(=O)O)[C@@H](O)[C@H](O)[C@H]3O)c1C/C=C(\C)CCC(=O)O)C(=O)OC2 [MPAG, MPA-glucuronide]","MPAG conc, Mean ± SD","[2]; plasma, N=244",51.8 ± 31.6 mg/L
same,"MPAG conc, Median","[2]; plasma, N=244",43.8 mg/L
same,"MPAG conc, Min-Max","[2]; plasma, N=244",10.6 to 180.5 mg/L
